ChEMBL document CHEMBL4406811, “Optimization and Mechanistic Characterization of Pyridopyrimidine Inhibitors of Bacterial Biotin Carboxylase” (J Med Chem, 2019)

Columns and labels:
[1] = test system: Escherichia coli; experiment: Antibacterial activity against Escherichia coli DM4100 harboring deltatolC mutant measured after 18 to 20 hrs in presence of permeabilizing agent PMBN by broth microdilution method; format: functional
[2] = target: FGFR1 (Homo sapiens, UniProt P11362); experiment: Inhibition of recombinant human His-tagged FGFR1 cytoplasmic domain (308 to 731 residues) expressed in baculovirus expression system at 25 uM using FRET-labeled tyr 04 peptide as substrate measured after 1 hr by Z'-lyte assay relative to control; details: probe FRET-labeled tyr 04 peptide
[3] = target: EGFR (Homo sapiens, UniProt P00533); experiment: Inhibition of recombinant human GST-tagged EGFR cytoplasmic domain (668 to 1210 residues) expressed in baculovirus expression system at 25 uM using FRET-labeled tyr 04 peptide as substrate measured after 1 hr by Z'-lyte assay relative to control; details: probe FRET-labeled tyr 04 peptide
[4] = target: MAP4K4 (Homo sapiens, UniProt O95819); experiment: Inhibition of recombinant human GST-tagged MAP4K4 catalytic domain (1 to 328 residues) expressed in baculovirus expression system at 25 uM using FRET-labeled Ser/Thr 07 peptide as substrate measured after 1 hr by Z'-lyte assay relative to control; details: probe FRET-labeled Ser/Thr 07 peptide
Chain of MAP4K4 (O95819 whole entry, the tested form may be a part): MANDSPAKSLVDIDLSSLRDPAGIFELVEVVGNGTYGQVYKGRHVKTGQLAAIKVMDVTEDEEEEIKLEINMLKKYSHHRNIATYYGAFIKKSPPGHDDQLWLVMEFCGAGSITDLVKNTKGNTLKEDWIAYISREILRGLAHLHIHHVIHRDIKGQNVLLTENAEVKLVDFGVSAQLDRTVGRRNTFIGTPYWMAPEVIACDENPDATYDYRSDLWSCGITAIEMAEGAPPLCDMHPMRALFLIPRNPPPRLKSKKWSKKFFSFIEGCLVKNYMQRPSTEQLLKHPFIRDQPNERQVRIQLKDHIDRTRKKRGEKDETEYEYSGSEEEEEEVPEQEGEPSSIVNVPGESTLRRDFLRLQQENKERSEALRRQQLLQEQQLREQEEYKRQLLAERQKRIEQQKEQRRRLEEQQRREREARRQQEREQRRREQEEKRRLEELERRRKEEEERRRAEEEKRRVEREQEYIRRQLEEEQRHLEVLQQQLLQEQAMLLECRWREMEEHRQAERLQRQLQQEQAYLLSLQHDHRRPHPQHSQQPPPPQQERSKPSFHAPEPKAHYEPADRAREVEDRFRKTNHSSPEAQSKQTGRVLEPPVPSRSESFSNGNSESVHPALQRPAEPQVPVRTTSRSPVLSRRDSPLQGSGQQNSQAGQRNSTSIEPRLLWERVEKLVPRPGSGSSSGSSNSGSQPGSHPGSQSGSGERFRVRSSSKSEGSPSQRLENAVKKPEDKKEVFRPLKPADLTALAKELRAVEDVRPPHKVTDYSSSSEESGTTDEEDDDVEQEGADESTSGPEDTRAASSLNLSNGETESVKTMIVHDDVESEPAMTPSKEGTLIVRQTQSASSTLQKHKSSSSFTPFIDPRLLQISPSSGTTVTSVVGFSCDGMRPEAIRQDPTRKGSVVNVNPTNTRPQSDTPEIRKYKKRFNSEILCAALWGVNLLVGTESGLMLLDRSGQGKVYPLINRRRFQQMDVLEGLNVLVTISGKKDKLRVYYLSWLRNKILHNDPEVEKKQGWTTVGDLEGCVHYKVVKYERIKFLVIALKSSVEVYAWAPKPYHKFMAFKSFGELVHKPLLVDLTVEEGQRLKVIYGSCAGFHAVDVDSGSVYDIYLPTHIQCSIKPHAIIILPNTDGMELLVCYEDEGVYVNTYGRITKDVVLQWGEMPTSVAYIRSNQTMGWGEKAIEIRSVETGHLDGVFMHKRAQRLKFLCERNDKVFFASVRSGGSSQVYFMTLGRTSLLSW

[5] = target: NTRK1 (Homo sapiens, UniProt P04629); experiment: Inhibition of recombinant human His-tagged NTRK1 cytoplasmic domain (441 to 796 residues) expressed in baculovirus expression system at 25 uM using FRET-labeled tyr 07 peptide as substrate measured after 1 hr by Z'-lyte assay relative to control; details: probe FRET-labeled tyr 07 peptide
Chain of NTRK1 (P04629 whole entry, the tested form may be a part): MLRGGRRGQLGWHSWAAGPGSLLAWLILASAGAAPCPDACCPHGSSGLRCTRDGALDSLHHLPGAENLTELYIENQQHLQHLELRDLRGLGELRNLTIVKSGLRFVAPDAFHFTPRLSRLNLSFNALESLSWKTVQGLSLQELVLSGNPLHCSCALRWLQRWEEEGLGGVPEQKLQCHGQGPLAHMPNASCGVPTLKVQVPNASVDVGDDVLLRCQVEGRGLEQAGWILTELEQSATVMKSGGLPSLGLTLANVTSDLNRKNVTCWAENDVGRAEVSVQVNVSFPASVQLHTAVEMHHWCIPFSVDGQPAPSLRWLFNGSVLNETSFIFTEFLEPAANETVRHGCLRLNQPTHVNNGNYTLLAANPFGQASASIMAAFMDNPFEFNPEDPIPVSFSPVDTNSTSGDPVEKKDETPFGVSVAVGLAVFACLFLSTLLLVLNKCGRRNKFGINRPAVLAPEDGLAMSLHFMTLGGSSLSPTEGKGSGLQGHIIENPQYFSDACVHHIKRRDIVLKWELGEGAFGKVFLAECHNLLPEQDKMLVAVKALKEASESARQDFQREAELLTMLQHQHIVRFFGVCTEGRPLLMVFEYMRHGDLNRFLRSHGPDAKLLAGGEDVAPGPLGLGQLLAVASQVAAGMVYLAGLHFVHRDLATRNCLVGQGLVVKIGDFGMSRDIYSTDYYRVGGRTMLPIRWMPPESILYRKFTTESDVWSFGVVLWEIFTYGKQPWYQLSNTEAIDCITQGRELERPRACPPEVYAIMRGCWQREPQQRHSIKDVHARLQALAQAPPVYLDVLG

[6] = target: PAK4 (Homo sapiens, UniProt O96013); experiment: Inhibition of recombinant human GST-tagged PAK4 catalytic domain (295 to 591 residues) expressed in baculovirus expression system at 25 uM using FRET-labeled Ser/Thr 20 peptide as substrate measured after 1 hr by Z'-lyte assay relative to control; details: probe FRET-labeled Ser/Thr 20 peptide
Chain of PAK4 (O96013 whole entry, the tested form may be a part): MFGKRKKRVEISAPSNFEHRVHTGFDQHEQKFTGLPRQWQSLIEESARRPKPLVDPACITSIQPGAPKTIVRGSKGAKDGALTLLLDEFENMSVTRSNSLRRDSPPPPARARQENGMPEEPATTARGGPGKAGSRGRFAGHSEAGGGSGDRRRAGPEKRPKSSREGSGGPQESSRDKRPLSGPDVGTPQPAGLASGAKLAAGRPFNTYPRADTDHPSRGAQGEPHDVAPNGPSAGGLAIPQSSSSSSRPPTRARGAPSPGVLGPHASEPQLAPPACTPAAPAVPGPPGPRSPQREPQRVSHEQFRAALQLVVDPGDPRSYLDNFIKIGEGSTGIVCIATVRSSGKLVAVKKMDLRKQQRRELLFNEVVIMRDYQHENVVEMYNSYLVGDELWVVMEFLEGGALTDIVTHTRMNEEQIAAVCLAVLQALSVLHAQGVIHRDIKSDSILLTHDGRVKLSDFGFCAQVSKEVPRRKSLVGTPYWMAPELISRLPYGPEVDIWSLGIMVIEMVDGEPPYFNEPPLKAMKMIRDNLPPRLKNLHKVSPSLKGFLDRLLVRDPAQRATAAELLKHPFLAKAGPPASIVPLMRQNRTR

[7] = target: CSNK1D (Homo sapiens, UniProt P48730); experiment: Inhibition of recombinant human full-length GST-tagged CSNK1D expressed in baculovirus expression system at 25 uM using FRET-labeled Ser/Thr 11 peptide as substrate measured after 1 hr by Z'-lyte assay relative to control; details: probe FRET-labeled Ser/Thr 11 peptide
Chain of CSNK1D (P48730 whole entry): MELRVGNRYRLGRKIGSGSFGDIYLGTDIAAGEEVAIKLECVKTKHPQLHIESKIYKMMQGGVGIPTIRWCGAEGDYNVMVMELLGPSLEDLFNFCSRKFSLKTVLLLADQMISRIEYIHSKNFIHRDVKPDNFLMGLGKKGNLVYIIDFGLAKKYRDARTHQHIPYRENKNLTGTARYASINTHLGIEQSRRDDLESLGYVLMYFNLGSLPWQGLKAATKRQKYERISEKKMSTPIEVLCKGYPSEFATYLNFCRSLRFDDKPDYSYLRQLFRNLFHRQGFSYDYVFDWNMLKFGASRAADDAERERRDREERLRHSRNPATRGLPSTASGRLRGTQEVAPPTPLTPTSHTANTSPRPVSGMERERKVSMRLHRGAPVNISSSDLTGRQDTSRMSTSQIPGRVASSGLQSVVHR

[8] = target: MAPKAPK2 (Homo sapiens, UniProt P49137); experiment: Inhibition of recombinant human full-length His-tagged MAPKAPK2 expressed in Escherichia coli at 25 uM using FRET-labeled Ser/Thr 04 peptide as substrate measured after 1 hr by Z'-lyte assay relative to control; details: probe FRET-labeled Ser/Thr 04 peptide
Chain of MAPKAPK2 (P49137 whole entry, the tested form may be a part): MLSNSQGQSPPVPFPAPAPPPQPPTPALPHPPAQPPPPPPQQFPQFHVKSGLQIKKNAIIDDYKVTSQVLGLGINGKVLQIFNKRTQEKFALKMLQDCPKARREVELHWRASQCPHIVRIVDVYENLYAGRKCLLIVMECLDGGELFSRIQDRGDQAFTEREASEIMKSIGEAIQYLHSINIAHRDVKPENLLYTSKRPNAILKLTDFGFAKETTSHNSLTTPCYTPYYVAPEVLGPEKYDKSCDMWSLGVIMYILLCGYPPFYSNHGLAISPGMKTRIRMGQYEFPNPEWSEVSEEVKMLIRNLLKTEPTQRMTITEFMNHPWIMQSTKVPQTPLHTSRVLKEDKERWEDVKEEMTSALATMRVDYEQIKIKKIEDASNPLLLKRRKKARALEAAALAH

[9] = target: INSR (Homo sapiens, UniProt P06213); experiment: Inhibition of recombinant human GST-tagged INSR cytoplasmic domain (1011 to 1382 residues) expressed in baculovirus expression system at 25 uM using FRET-labeled Tyr 01 peptide as substrate measured after 1 hr by Z'-lyte assay relative to control; details: probe FRET-labeled Tyr 01 peptide
[10] = target: GSK3B (Homo sapiens, UniProt P49841); experiment: Inhibition of recombinant human full-length His-tagged GSK3B expressed in baculovirus expression system at 25 uM using FRET-labeled Ser/Thr 09 peptide as substrate measured after 1 hr by Z'-lyte assay relative to control; details: probe FRET-labeled Ser/Thr 09 peptide
Chain of GSK3B (P49841 whole entry): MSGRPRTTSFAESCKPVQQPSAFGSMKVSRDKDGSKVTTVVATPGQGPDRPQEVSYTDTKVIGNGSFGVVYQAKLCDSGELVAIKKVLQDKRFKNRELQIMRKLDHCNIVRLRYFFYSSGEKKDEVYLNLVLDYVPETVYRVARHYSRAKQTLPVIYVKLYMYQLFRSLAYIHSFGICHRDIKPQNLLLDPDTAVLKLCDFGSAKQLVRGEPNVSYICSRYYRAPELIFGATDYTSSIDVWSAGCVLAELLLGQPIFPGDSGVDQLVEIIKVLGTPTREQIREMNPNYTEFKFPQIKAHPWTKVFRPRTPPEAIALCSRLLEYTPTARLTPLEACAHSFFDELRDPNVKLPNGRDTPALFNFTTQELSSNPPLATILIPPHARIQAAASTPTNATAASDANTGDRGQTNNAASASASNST

[11] = target: AKT1 (Homo sapiens, UniProt P31749); experiment: Inhibition of recombinant human full-length His-tagged AKT1 expressed in baculovirus expression system at 25 uM using FRET-labeled Ser/Thr 05 peptide as substrate measured after 1 hr by Z'-lyte assay relative to control; details: probe FRET-labeled Ser/Thr 05 peptide
Chain of AKT1 (P31749 whole entry): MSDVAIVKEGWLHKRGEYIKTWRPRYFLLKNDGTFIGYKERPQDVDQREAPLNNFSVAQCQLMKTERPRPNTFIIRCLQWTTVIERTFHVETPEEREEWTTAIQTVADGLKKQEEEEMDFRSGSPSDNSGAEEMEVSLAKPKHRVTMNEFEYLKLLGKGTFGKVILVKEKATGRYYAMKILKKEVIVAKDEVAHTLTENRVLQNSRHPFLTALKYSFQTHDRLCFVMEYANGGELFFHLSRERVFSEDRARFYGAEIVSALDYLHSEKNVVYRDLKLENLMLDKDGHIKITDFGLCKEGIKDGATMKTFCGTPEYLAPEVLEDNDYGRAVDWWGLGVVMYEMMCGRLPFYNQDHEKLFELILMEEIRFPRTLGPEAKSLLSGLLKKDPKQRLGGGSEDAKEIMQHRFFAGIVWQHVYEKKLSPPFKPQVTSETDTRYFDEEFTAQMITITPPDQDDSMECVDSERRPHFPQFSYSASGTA

[12] = target: PDK1 (Homo sapiens, UniProt Q15118); experiment: Inhibition of recombinant human full-length His-tagged PDK1 expressed in baculovirus expression system at 25 uM using FRET-labeled Ser/Thr 07 peptide as substrate measured after 1 hr by Z'-lyte assay relative to control; details: probe FRET-labeled Ser/Thr 07 peptide
Chain of PDK1 (Q15118 whole entry): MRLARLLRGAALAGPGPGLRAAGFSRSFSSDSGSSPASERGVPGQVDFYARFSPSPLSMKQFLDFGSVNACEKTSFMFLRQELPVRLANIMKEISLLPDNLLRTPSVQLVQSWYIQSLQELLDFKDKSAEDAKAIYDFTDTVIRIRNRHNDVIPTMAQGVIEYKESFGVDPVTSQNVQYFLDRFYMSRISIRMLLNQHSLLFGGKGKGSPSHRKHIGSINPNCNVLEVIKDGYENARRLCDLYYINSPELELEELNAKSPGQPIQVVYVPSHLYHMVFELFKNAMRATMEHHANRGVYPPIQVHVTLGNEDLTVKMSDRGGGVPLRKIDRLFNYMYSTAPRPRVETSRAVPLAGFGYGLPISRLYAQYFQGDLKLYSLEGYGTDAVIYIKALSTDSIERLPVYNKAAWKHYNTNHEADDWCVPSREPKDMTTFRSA

[13] = target: T1, PRKCZ (Homo sapiens, UniProt Q05513); experiment: Inhibition of recombinant human full-length untagged PRKCZ expressed in baculovirus expression system at 25 uM using FRET-labeled Ser/Thr 07 peptide as substrate measured after 1 hr by Z'-lyte assay relative to control; details: probe FRET-labeled Ser/Thr 07 peptide
T1 sequence (Q05513 whole entry): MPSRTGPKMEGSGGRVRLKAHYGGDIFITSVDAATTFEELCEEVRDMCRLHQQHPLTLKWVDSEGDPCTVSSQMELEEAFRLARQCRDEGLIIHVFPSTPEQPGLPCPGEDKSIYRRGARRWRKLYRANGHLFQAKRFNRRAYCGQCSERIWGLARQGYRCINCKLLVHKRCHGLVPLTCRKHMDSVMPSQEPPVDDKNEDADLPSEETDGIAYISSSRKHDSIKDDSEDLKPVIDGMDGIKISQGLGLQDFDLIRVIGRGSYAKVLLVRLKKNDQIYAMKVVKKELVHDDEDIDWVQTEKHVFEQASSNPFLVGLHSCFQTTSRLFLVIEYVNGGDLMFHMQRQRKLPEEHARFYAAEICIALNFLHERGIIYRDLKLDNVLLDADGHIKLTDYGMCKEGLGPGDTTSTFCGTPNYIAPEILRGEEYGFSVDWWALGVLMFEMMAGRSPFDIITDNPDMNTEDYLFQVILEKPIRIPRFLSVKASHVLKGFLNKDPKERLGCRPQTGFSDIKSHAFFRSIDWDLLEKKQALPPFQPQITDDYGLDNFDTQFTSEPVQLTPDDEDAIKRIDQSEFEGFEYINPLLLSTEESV

[14] = target: T2, CHEK1 (Homo sapiens, UniProt O14757); experiment: Inhibition of recombinant human full-length His-tagged CHEK1 expressed in baculovirus expression system at 25 uM using FRET-labeled Ser/Thr 19 peptide as substrate measured after 1 hr by Z'-lyte assay relative to control; details: probe FRET-labeled Ser/Thr 19 peptide
T2 sequence (O14757 whole entry): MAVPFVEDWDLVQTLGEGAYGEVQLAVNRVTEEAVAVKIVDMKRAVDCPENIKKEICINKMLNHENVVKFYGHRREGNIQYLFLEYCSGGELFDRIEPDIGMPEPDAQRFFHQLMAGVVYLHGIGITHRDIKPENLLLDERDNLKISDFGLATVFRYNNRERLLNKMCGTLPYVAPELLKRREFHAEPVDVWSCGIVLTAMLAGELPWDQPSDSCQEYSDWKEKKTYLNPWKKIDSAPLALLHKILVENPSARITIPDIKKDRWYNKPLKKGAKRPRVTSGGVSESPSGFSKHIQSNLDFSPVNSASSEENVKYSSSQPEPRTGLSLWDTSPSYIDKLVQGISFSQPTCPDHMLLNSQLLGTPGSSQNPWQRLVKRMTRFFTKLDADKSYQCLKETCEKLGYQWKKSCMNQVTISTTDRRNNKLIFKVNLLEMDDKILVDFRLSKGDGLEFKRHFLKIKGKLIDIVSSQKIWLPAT

Row | Structure (SMILES) | MIC [1] [µg/mL] | inhibition at 1 h, 25 µM [2] [%] | inhibition at 1 h, 25 µM [3] [%] | inhibition at 1 h, 25 µM [4] [%] | inhibition at 1 h, 25 µM [5] [%] | inhibition at 1 h, 25 µM [6] [%] | inhibition at 1 h, 25 µM [7] [%] | inhibition at 1 h, 25 µM [8] [%] | inhibition at 1 h, 25 µM [9] [%] | inhibition at 1 h, 25 µM [10] [%] | inhibition at 1 h, 25 µM [11] [%] | inhibition at 1 h, 25 µM [12] [%] | inhibition at 1 h, 25 µM [13] [%] | inhibition at 1 h, 25 µM [14] [%]
1 | CC(C)COc1cccc(Cl)c1-c1cc2cnc(N)nc2nc1N1C[C@@H]2[C@@H](N)[C@@H]2C1 | 0.015 | 60 | 6 | 24 | 40 | 23 | 3 | 21 | 3 | 7 | 7 | 0 | -8 | 42
2 | Nc1ncc2cc(-c3c(Br)cccc3Br)c(N)nc2n1 | 0.12 | 78 | 58 | 52 | 47 | 20 | 16 | 10 | 6 | 6 | 4 | 3 | 0 | -1
3 | Nc1ncc2cc(-c3c(Cl)cccc3-c3cccnc3)c(N3C[C@@H]4[C@@H](N)[C@@H]4C3)nc2n1 | 0.008 | 57 | 65 | 21 | 47 | 25 | 3 | 26 | 3 | 4 | 6 | 0 | 5 | 28
